Results: the NIST ThermoML archive (doi:10.1021/acs.jced.8b00537)

Experiment: xn = mol fraction of the nth substance listed
Details: 100 kPa, Liquid; for viscosity: Capillary tube (Ostwald / Ubbelohde) method; for speed of sound: Frequency=3 MHz, Single path-length method; for mass density: Vibrating tube method

O=S(=O)([N-]S(=O)(=O)C(F)(F)F)C(F)(F)F.On1cc[n+](O)c1 [1,3-dihydroxyimidazolium bis(trifluoromethylsulfonyl)imide] + CCCO
Details | mass density [kg/m3] | speed of sound [m/s] | viscosity [mPa·s]
293.15 K, x1 = 0.0999 | 1039 | 1192.5 | 6.428
293.15 K, x1 = 0.1994 | 1207 | 1175.2 | 10.56
293.15 K, x1 = 0.2993 | 1333 | 1166.5 | 18.74
293.15 K, x1 = 0.3992 | 1430 | 1167 | 31.05
293.15 K, x1 = 0.4985 | 1510 | 1170.2 | 46.71
293.15 K, x1 = 0.5999 | 1576 | 1175.3 | 65.75
293.15 K, x1 = 0.6989 | 1631 | 1182.6 | 99.34
293.15 K, x1 = 0.7996 | 1680 | 1190.1 | 120.22
293.15 K, x1 = 0.8973 | 1719 | 1198.4 | 184.26
293.15 K, x1 = 1 | 1746 | 1208.2 | 238.6
298.15 K, x1 = 0.0999 | 1034 | 1177.8 | 5.606
298.15 K, x1 = 0.1994 | 1202 | 1161.9 | 9.087
298.15 K, x1 = 0.2993 | 1328 | 1154 | 15.55
298.15 K, x1 = 0.3992 | 1425 | 1155 | 25.3
298.15 K, x1 = 0.4985 | 1505 | 1158.3 | 37.27
298.15 K, x1 = 0.5999 | 1570 | 1163.5 | 51.4
298.15 K, x1 = 0.6989 | 1625 | 1171 | 76.1
298.15 K, x1 = 0.7996 | 1674 | 1178.4 | 90.44
298.15 K, x1 = 0.8973 | 1713 | 1186.7 | 135.12
298.15 K, x1 = 1 | 1740 | 1196.6 | 171.83
303.15 K, x1 = 0.0999 | 1030 | 1163.2 | 4.921
303.15 K, x1 = 0.1994 | 1197 | 1148.7 | 7.864
303.15 K, x1 = 0.2993 | 1323 | 1141.6 | 13.07
303.15 K, x1 = 0.3992 | 1419 | 1143.1 | 20.93
303.15 K, x1 = 0.4985 | 1499 | 1146.7 | 30.21
303.15 K, x1 = 0.5999 | 1564 | 1152 | 40.94
303.15 K, x1 = 0.6989 | 1620 | 1159.5 | 59.33
303.15 K, x1 = 0.7996 | 1668 | 1166.9 | –
303.15 K, x1 = 0.8973 | 1707 | 1175.2 | 101.71
303.15 K, x1 = 1 | 1735 | 1185.2 | 127.52
308.15 K, x1 = 0.0999 | 1025 | 1148.9 | 4.34
308.15 K, x1 = 0.1994 | 1192 | 1135.7 | 6.844
308.15 K, x1 = 0.2993 | 1318 | 1129.4 | 11.09
308.15 K, x1 = 0.3992 | 1414 | 1131.4 | 17.59
308.15 K, x1 = 0.4985 | 1494 | 1135.2 | 24.91
308.15 K, x1 = 0.5999 | 1559 | 1140.7 | 33.19
308.15 K, x1 = 0.6989 | 1614 | 1148.3 | 47.17
308.15 K, x1 = 0.7996 | 1662 | 1155.7 | 54.77
308.15 K, x1 = 0.8973 | 1702 | 1164 | 78.32
308.15 K, x1 = 1 | 1729 | 1174.1 | 96.92
313.15 K, x1 = 0.0999 | 1020 | 1134.6 | 3.849
313.15 K, x1 = 0.1994 | 1187 | 1122.8 | 5.991
313.15 K, x1 = 0.2993 | 1313 | 1117.3 | 9.541
313.15 K, x1 = 0.3992 | 1409 | 1119.8 | 14.92
313.15 K, x1 = 0.4985 | 1489 | 1123.9 | 20.85
313.15 K, x1 = 0.5999 | 1553 | 1129.5 | 27.38
313.15 K, x1 = 0.6989 | 1608 | 1137.2 | 37.93
313.15 K, x1 = 0.7996 | 1657 | 1144.6 | 43.92
313.15 K, x1 = 0.8973 | 1696 | 1153 | 61.38
313.15 K, x1 = 1 | 1723 | 1163.1 | 75.56
318.15 K, x1 = 0.0999 | 1016 | 1120.5 | 3.434
318.15 K, x1 = 0.1994 | 1182 | 1110.1 | 5.275
318.15 K, x1 = 0.2993 | 1308 | 1105.4 | 8.279
318.15 K, x1 = 0.3992 | 1404 | 1108.3 | 12.81
318.15 K, x1 = 0.4985 | 1483 | 1112.7 | 17.64
318.15 K, x1 = 0.5999 | 1548 | 1118.5 | 22.86
318.15 K, x1 = 0.6989 | 1603 | 1126.3 | 31.31
318.15 K, x1 = 0.7996 | 1651 | 1133.7 | 35.76
318.15 K, x1 = 0.8973 | 1690 | 1142.1 | 49.13
318.15 K, x1 = 1 | 1717 | 1152.3 | 59.8
323.15 K, x1 = 0.0999 | 1011 | 1106.4 | 3.072
323.15 K, x1 = 0.1994 | 1178 | 1097.4 | 4.675
323.15 K, x1 = 0.2993 | 1303 | 1093.6 | 7.234
323.15 K, x1 = 0.3992 | 1398 | 1097 | 11.09
323.15 K, x1 = 0.4985 | 1478 | 1101.6 | 15.11
323.15 K, x1 = 0.5999 | 1542 | 1107.6 | 19.34
323.15 K, x1 = 0.6989 | 1597 | 1115.5 | 25.89
323.15 K, x1 = 0.7996 | 1645 | 1123 | 29.52
323.15 K, x1 = 0.8973 | 1684 | 1131.4 | 39.97
323.15 K, x1 = 1 | 1711 | 1141.6 | 48.29
328.15 K, x1 = 0.0999 | 1006 | 1092.4 | 2.759
328.15 K, x1 = 0.1994 | 1173 | 1084.9 | 4.171
328.15 K, x1 = 0.2993 | 1298 | 1082 | 6.368
328.15 K, x1 = 0.3992 | 1393 | 1085.8 | 9.679
328.15 K, x1 = 0.4985 | 1472 | 1090.7 | 13.05
328.15 K, x1 = 0.5999 | 1537 | 1096.8 | 16.53
328.15 K, x1 = 0.6989 | 1592 | 1104.8 | 21.88
328.15 K, x1 = 0.7996 | 1640 | 1112.3 | 24.73
328.15 K, x1 = 0.8973 | 1679 | 1120.8 | 32.99
328.15 K, x1 = 1 | 1705 | 1131.1 | 39.57
333.15 K, x1 = 0.0999 | 1002 | 1078.5 | 2.491
333.15 K, x1 = 0.1994 | 1168 | 1072.4 | 3.742
333.15 K, x1 = 0.2993 | 1293 | 1070.4 | 5.644
333.15 K, x1 = 0.3992 | 1388 | 1074.7 | 8.509
333.15 K, x1 = 0.4985 | 1467 | 1080 | 11.37
333.15 K, x1 = 0.5999 | 1532 | 1086.1 | 14.29
333.15 K, x1 = 0.6989 | 1586 | 1094.2 | 18.68
333.15 K, x1 = 0.7996 | 1634 | 1101.8 | 20.94
333.15 K, x1 = 0.8973 | 1673 | 1110.3 | 27.57
333.15 K, x1 = 1 | 1700 | 1120.7 | 32.88
338.15 K, x1 = 0.0999 | 997 | 1064.5 | 2.255
338.15 K, x1 = 0.1994 | 1163 | 1060.1 | 3.375
338.15 K, x1 = 0.2993 | 1288 | 1059 | 5.034
338.15 K, x1 = 0.3992 | 1383 | 1063.7 | 7.522
338.15 K, x1 = 0.4985 | 1462 | 1069.3 | 9.989
338.15 K, x1 = 0.5999 | 1526 | 1075.6 | 12.46
338.15 K, x1 = 0.6989 | 1581 | 1083.8 | 16.12
338.15 K, x1 = 0.7996 | 1628 | 1091.5 | 17.87
338.15 K, x1 = 0.8973 | 1667 | 1100 | 23.34
338.15 K, x1 = 1 | 1694 | 1110.4 | 27.69
343.15 K, x1 = 0.0999 | 992 | 1050.7 | 2.051
343.15 K, x1 = 0.1994 | 1158 | 1048 | 3.057
343.15 K, x1 = 0.2993 | 1283 | 1047.8 | 4.514
343.15 K, x1 = 0.3992 | 1378 | 1052.8 | 6.692
343.15 K, x1 = 0.4985 | 1456 | 1058.9 | 8.831
343.15 K, x1 = 0.5999 | 1521 | 1065.1 | 10.95
343.15 K, x1 = 0.6989 | 1575 | 1073.5 | 14.03
343.15 K, x1 = 0.7996 | 1623 | 1081.2 | 15.41
343.15 K, x1 = 0.8973 | 1662 | 1089.8 | 19.94
343.15 K, x1 = 1 | 1688 | 1100.2 | 23.59
